Measured values as given in article PMC10288505, “Photoswitchable Calixarene Activators for Controlled Peptide Transport across Lipid Membranes” (Journal of the American Chemical Society, 2023).

What was measured:
R8 = test: Indicator displacement assay with host:LCG reporter pair, guest R8; format: binding; conditions: association constant, competitive dye displacement with LCG, 5 mM phosphate buffer pH 7.3; only the lower limit can be estimated
Text: The binding affinity of the anionic calixarene activators toward cationic peptides was investigated using a small library of highly hydrophilic oligoarginines, from 3 to 8 residues. These peptides are not able to spontaneously transverse zwitterionic artificial membranes in vesicle assays, which allows the accurate evaluation of the calixarenes 1 and 2 as counterion activators without interferences from the transport of the peptide alone.[43]−[45] First, the formation of host–guest complexes between 1/2 and the selected peptides was verified by indicator displacement assays using lucigenin (LCG) as the fluorescent indicator.[46] As previously reported for other sulfonatocalixarene derivatives,[46] the formation of host–guest binding pairs between calixarenes 1/2 in the E- and Z-forms and LCG results in significant static fluorescence quenching (see Figure 2A and Figures S26 and S27). Quantitative analysis of the fluorescence titration data using a 1:1 host:guest binding model allows the determination of the respective binding constants (K) reported in Table 1. As can be observed, both 1/2 display high affinity for the LCG dye, on the 10^7 M^–1 range, which seems to be independent of the nature and conformation of the azobenzene arm. […] The host:LCG binding pairs were then employed in the above-mentioned indicator displacement assays to investigate the binding affinity of oligoarginines toward 1 and 2 (see Figure 2B and Figures S29–S33).
The binding affinities of the counterion activators and peptide complexes were analyzed by indicator displacement assays. […] Firstly, the affinity for LCG was calculated for each of the activators, by titrations followed by fluorescence spectroscopy leading to almost full quenching of the emission. […]
Figure S26 - Fluorescence titration of the lucigenin dye with increasing concentrations of A) E-1 and B) Z–1 in water (5 mM phosphate buffer pH 7.3). […]

HeLa cells = test: MTT viability assay; format: cell-based; conditions: 24 h of incubation, 4-parameters logistic fit, triplicate, read-out: IC50 cytotoxicity
Description: Success in artificial vesicle assays encouraged us to conduct transport experiments of fluorescently labeled peptides in living cells (Figure 5). We first employed confocal fluorescence microscopy to evaluate counterion activator 2 for the intracellular transport of a carboxytetramethylrhodamine-labeled R8 peptide (TAMRA-R8) into the cytosol of HeLa cells. Cationic peptides usually remain trapped inside the endosomes when incubated with cells at low μM concentrations.[32],[44] […] The cytometry experiments validated the E isomer selective transport and indicated a four-fold intracellular delivery enhancement (Figure 5C and Figure S52). […]
measured on a Guava easyCyte BG HT collecting the emission at 583/26 nm (Yellow-G channel), using InCyte v3.2 (GuavaSoft, Millipore). Cells with typical FSC and SSC parameters were selected and the mean fluorescence intensity was calculated for each sample. Each condition was measured in quadruplicate. […]
Afterwards, samples were removed and replaced with 100 µL of fresh complete DMEM supplemented with 0.5 mg/mL MTT. […] The absorbance at 570 nm was measured with a plate reader (Tecan Infinite F200Pro) and the data normalized to the value of untreated cells (100% viability), after blank subtraction (cells previously treated with Triton X-100). Each condition was measured in triplicate. […]

SMILES | Apparent affinity constant K for R8 (R8) | IC50 (HeLa cells) [µM]
O=S(=O)([O-])c1cc2c(O)c(c1)Cc1cc(S(=O)(=O)[O-])cc(c1O)Cc1cc(S(=O)(=O)[O-])cc(c1OCCCCCCOc1ccc(/N=N/c3ccccc3)cc1)Cc1cc(S(=O)(=O)[O-])cc(c1O)C2.[Li+].[Li+].[Li+].[Li+] [E-1] | >5 × 10^8 ^a M^–1 | –
CCCCc1ccc(/N=N/c2ccc(OCCCOc3c4cc(S(=O)(=O)[O-])cc3Cc3cc(S(=O)(=O)[O-])cc(c3O)Cc3cc(S(=O)(=O)[O-])cc(c3O)Cc3cc(S(=O)(=O)[O-])cc(c3O)C4)cc2)cc1.[Li+].[Li+].[Li+].[Li+] [E-2] | >5 × 10^8 ^a M^–1 | 16.9
CCCCc1ccc(/N=N\c2ccc(OCCCOc3c4cc(S(=O)(=O)[O-])cc3Cc3cc(S(=O)(=O)[O-])cc(c3O)Cc3cc(S(=O)(=O)[O-])cc(c3O)Cc3cc(S(=O)(=O)[O-])cc(c3O)C4)cc2)cc1.[Li+].[Li+].[Li+].[Li+] [Z-2] | – | 19.2
